Laboratory results: patent US20150050663A1, “Optimal Gonadotropin Dosage” (Oslo Universitetssykehus HF, priority 2012, published 2015)

Test system: peripheral blood monocytes
Experiment: uptake of fluorochrome-conjugated gonadotropins by blood-derived leukocytes (FACS)
Type: cell-based, human
Settings: FIG. 1B
Procedure: Blood-derived monocytes are enriched by density gradient centrifugation. […] Cells are labelled with fluorochrome-conjugated monocyte marker (e.g. anti-CD14-PerCP antibody, as described above) and analyzed with multi-colour flow cytometry (FACS).
Unspecific binding (background) is estimated as MFI for cells incubated on ice
Cells were analyzed with flow cytometry (FACS) with simultaneous detection of multiple cell lineage markers.

cytochalasin
effect on gonadotropin binding to monocytes: inhibited
